Reference: patent US8618068B2, “Methods and low dose regimens for treating red blood cell disorders” (priority 2009, dated 2013)
Several values for one entry are separate records, joined by “and”; a condition that tells them apart may be missing. Equal entries are not always repeated. Where two headings read alike, the source gives them in different places.

Key:
[1] = Pharmacokinetics of single doses in 5 baboons; conditions: monkey, in vivo
Method: Pharmacokinetics analyses have been conducted with DMB and 2,2-dimethylbutyric acid neutralized with L-arginine in baboons, dogs, and rats. The AUC per dose varied between animals.
Pharmacokinetic analyses of 2,2-dimethylbutyrate was conducted as either the sodium salt or the L-arginine salt, via the oral or intravenous route, as single doses to 5 baboons at doses of 33.3, 83.3, 100, 125 or 167 mg/kg free acid.
The data collected on DMB in plasma allowed an assessment of pharmacokinetic parameters; however, since collection time points were not performed in some baboons during the terminal elimination phase, these determinations are preliminary. The AUC per dose varied between animals. The area under the plasma concentration time-curve (AUC0-24 hr) following oral administration of DMB at 83.3 or 125 mg/kg free acid (100 and 150 mg/kg with salt) ranged from 1962-9363 μmol·h/L ([…]).

CYP1A2 = target: T1, CYP1A2 (Homo sapiens, UniProt P05177); assay: Cytochrome P450 inhibition in human hepatic microsomes; type: in vitro ADME
T1 construct: from tissue; host or cells: human hepatic microsomes
T1 sequence (P05177 whole entry): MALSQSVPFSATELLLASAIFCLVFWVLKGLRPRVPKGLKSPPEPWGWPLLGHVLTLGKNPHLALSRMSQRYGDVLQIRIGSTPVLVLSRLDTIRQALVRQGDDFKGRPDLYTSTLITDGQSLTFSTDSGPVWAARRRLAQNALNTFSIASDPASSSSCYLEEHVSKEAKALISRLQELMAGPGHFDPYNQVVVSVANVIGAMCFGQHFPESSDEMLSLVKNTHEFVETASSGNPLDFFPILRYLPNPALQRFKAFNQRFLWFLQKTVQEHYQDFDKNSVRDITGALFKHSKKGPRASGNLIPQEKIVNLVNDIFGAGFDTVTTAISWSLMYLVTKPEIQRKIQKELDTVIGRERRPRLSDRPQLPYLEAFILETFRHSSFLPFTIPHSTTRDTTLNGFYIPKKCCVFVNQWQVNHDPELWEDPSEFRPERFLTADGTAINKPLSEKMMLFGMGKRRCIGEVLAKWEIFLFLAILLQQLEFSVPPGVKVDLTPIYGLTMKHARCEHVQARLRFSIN
Method: (§1) The inhibitory potential of DMB on the human cytochrome P450 activities involved in the metabolism of phenacetin O-deethylase (CYP1A2), bupropion hydroxylase (CYP2B6), amodiaquine N-deethylase (CYP2C8), diclofenac 4′-hydroxylase (CYP2C9), S-mephenyloin 4′-hydroxylase (CYP2C19), bufuralol 1′-hydroxylase (CYP2D6), testosterone 6β-hydroxylase (CYP3A), and midazolam 1′-hydroxylase (CYP3A) was assessed in vitro using human hepatic microsomes. Microsomes were incubated with isoenzyme-selective substrates at concentrations approximating the Km value in the absence and presence of DMB (at concentrations ranging from 0.1 to […]). The extent of inhibition was assessed by comparing activities from control and DMB-treated microsomes. […] Percent activity remaining was high for all cytochrome P450 assays with 80% activity remaining compared with control activities.

CYP2B6 = target: T2, CYP2B6 (Homo sapiens, UniProt P20813); assay: as above; type: in vitro ADME
T2 construct: from tissue; host or cells: human hepatic microsomes
T2 sequence (P20813 whole entry): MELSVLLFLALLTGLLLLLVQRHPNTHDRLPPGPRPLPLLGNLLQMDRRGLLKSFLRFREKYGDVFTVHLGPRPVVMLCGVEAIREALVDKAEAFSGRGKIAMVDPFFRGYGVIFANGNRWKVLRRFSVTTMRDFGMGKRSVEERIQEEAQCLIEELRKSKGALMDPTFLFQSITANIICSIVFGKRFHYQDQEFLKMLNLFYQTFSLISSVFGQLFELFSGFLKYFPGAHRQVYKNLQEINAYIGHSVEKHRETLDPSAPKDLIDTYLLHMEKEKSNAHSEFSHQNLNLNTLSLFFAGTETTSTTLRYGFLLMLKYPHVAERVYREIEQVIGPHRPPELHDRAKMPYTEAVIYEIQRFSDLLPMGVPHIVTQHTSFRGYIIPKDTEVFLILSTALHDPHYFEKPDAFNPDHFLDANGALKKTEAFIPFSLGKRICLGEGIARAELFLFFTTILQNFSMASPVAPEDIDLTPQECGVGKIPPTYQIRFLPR
Method: as §1

CYP2C19 = target: T3, CYP2C19 (Homo sapiens, UniProt P33261); assay: as above; type: in vitro ADME
T3 construct: from tissue; host or cells: human hepatic microsomes
T3 sequence (P33261 whole entry): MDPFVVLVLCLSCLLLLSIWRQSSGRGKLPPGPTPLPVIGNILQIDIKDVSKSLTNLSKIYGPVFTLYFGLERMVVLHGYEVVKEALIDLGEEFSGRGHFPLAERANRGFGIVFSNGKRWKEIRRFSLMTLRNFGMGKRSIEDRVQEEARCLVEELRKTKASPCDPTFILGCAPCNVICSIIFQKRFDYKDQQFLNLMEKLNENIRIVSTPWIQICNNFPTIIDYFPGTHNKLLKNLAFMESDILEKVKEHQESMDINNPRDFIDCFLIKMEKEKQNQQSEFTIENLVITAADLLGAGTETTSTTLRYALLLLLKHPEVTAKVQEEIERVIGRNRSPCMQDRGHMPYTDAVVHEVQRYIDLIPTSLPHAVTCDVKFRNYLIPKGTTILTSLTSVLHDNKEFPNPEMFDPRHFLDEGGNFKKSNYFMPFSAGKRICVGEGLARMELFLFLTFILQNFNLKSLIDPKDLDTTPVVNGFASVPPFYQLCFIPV
Method: as §1

CYP2C8 = target: T4, CYP2C8 (Homo sapiens, UniProt P10632); assay: as above; type: in vitro ADME
T4 construct: from tissue; host or cells: human hepatic microsomes
T4 sequence (P10632 whole entry): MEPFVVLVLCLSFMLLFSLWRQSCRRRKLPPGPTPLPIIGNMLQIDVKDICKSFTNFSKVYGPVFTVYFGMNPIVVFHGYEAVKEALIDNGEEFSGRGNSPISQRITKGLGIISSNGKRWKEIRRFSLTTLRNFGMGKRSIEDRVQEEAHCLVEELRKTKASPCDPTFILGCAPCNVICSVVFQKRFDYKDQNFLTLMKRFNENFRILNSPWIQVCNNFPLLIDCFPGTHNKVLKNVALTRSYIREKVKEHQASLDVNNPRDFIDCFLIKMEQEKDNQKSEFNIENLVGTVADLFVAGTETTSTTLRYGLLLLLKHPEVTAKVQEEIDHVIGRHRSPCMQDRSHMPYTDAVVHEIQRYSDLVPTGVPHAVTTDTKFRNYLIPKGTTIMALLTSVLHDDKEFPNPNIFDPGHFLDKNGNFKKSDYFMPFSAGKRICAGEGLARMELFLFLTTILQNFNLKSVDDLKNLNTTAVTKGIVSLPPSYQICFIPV
Method: as §1

CYP2C9 = target: T5, CYP2C9 (Homo sapiens, UniProt P11712); assay: as above; type: in vitro ADME
T5 construct: from tissue; host or cells: human hepatic microsomes
T5 sequence (P11712 whole entry): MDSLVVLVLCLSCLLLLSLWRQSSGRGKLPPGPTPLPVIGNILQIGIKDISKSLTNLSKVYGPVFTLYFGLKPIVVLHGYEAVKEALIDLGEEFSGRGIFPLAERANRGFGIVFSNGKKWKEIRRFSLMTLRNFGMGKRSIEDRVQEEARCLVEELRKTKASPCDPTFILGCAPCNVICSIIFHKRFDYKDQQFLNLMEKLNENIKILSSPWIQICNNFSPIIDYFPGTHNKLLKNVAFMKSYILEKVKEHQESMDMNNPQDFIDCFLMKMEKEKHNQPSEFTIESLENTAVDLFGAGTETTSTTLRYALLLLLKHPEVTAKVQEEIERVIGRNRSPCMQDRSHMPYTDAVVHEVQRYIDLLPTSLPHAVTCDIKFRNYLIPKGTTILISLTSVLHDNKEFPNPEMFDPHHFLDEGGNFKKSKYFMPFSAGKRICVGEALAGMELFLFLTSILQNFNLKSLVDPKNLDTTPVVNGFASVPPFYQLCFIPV
Method: as §1

CYP2D6 = target: T6, CYP2D6 (Homo sapiens, UniProt P10635); assay: as above; type: in vitro ADME
T6 construct: from tissue; host or cells: human hepatic microsomes
T6 sequence (P10635 whole entry): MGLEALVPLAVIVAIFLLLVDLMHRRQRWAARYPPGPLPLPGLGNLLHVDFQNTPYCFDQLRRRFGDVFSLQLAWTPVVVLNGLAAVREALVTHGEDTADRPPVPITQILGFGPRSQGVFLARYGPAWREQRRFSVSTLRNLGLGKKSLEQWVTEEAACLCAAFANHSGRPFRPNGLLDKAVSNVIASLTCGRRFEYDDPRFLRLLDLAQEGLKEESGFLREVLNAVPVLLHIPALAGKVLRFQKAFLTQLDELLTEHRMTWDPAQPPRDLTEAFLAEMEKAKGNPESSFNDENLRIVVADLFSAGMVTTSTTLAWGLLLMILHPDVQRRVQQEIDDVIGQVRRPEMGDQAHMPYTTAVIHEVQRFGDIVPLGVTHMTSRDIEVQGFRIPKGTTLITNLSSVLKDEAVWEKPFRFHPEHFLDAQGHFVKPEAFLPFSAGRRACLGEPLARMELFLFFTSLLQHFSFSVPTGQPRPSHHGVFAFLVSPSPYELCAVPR
Method: as §1

CYP3A = assay: as above; type: in vitro ADME
Method: as §1

[2] = tested on: micronucleated erythrocytes (PCEs); conditions: rat, in vivo
Method: The potential for DMB to induce formation of micronuclei in vivo was evaluated as part of the initial 14-Day toxicity repeat dose toxicity study in rats administered doses of 0, 200, 600 and 1,000 mg/kg/day for 14 days.

[3] = Phase 1 repeat-dose clinical study, pharmacokinetics; type: in vivo, human; conditions: for AUC(0-t): read-out: AUC0-24
Method: DMB was evaluated in a phase 1, placebo-controlled, randomized, repeat dose clinical study that evaluated tolerability, safety, and pharmacokinetics in healthy volunteers. A total of 41 subjects (31 receiving active drug and 10 receiving placebo) completed 14 consecutive days of study medication at daily dose levels of 5, 10 or 15 mg/kg (10 subjects received placebo). Given the importance of iron in red blood cell production, and the requirement for iron supplementation for induction of HbF with other erythropoietic agents, subjects at all 3 dose levels received oral ferrous gluconate on the study medication days. DMB was administered with food to all but one group (5 mg/kg, cohort 1). Subjects were admitted and observed for 24 hours following initial dosing. Thereafter, the study drug was taken once per day at home, except for the last study day. The subjects were monitored weekly for 6 weeks. Thirty-seven subjects completed the study and 4 subjects dropped out due to conflicts. Safety and PK data are available on these subjects.
The treatment groups included: Cohort 1: 5 mg/kg fasting, 6 active, 2 placebo; Cohort 2: 5 mg/kg with food, 7 active, 2 placebo (3 drop outs); Cohort 3: 5 mg/kg with food and iron supplements, 6 active, 2 placebo (1 drop out); Cohort 4: 10 mg/kg with food and iron supplements, 6 active, 2 placebo; and Cohort 5: 15 mg/kg with food and iron supplements, 6 active, 2 placebo. Subjects in Cohorts 3, 4, and 5 received a single daily dose of ferrous gluconate (325 mg). The iron supplement was administered to evaluate study medication tolerability when taken with iron. No subjects discontinued due to AEs or safety concerns. Fewer subjects reported an event in the highest dose cohort following eating a meal ([…]) than were reported in the lower dose cohorts ([…], 5 and 10 mg/kg).
Pharmacokinetic (PK) analyses of individual subject plasma concentration-time data were conducted for Day 0 (first dose) and Day 13 (at steady-state) in the multi-dose study. […] Analysis of PK data has shown that plasma drug levels >20 ug/mL persist for greater than 10 hours at the 10 and 15 mg/kg dose levels.

[4] = compared with control activities

For CCC(C)(C)C(=O)[O-].[Na+] [DMB, Sodium 2,2-dimethylbutyrate], the clearance [1] was 0.833 to 7 mL/min/kg, the half-life ([1]; half-life, range) was 1.2 to 7.9 h and the half-life ([1]; median half-life) was 2.7 h. For the same compound, the AUC(0-t) ([1]; po, 125 mg/kg) was 1960 µM·h to 9360 µM·h and 226 ng·h/mL to 1080 ng·h/mL, the bioavailability ([1]; po, Oral bioavailability over 24 hours) was over 60% and the “inhibition of phenacetin O-deethylase (CYP1A2)” value (CYP1A2; DMB up to 300 μM) was “no significant inhibition”. For the same compound, the “Percent activity remaining, phenacetin O-deethylase (CYP1A2)” value (CYP1A2; [4]) was 80%, the “inhibition of bupropion hydroxylase (CYP2B6)” value (CYP2B6; DMB up to 300 μM) was “no significant inhibition” and the “Percent activity remaining, bupropion hydroxylase (CYP2B6)” value (CYP2B6; [4]) was 80%. For the same compound, the “inhibition of S-mephenyloin 4′-hydroxylase (CYP2C19)” value (CYP2C19; DMB up to 300 μM) was “no significant inhibition”, the “Percent activity remaining, S-mephenyloin 4′-hydroxylase (CYP2C19)” value (CYP2C19; [4]) was 80% and the “inhibition of amodiaquine N-deethylase (CYP2C8)” value (CYP2C8; DMB up to 300 μM) was “no significant inhibition”. The “Percent activity remaining, amodiaquine N-deethylase (CYP2C8)” value (CYP2C8; [4]) was 80%, the “inhibition of diclofenac 4′-hydroxylase (CYP2C9)” value (CYP2C9; DMB up to 300 μM) was “no significant inhibition” and the “Percent activity remaining, diclofenac 4′-hydroxylase (CYP2C9)” value (CYP2C9; [4]) was 80%. For the same compound, the “inhibition of bufuralol 1′-hydroxylase (CYP2D6)” value (CYP2D6; DMB up to 300 μM) was “no significant inhibition”, the “Percent activity remaining, bufuralol 1′-hydroxylase (CYP2D6)” value (CYP2D6; [4]) was 80% and the “inhibition of midazolam 1′-hydroxylase (CYP3A)” value (CYP3A; DMB up to 300 μM) was “no significant inhibition”. The “inhibition of testosterone 6β-hydroxylase (CYP3A)” value (CYP3A; DMB up to 300 μM) was “no significant inhibition”, the “Percent activity remaining, midazolam 1′-hydroxylase (CYP3A)” value (CYP3A; [4]) was 80% and the “Percent activity remaining, testosterone 6β-hydroxylase (CYP3A)” value (CYP3A; [4]) was 80%. For the same compound, the “plasma levels of DMB at which micronucleus activity occurred” value ([2]; male, Sprague Dawley) was “exceeding 500 μg/mL”, the “micronucleated PCEs, mean” value ([2]; male, Sprague Dawley, 14 days) was 3.3±0.16 MN PCEs/1,000 PCEs and the “frequency of micronucleated erythrocytes (PCEs) compared to controls” value [2] was “statistically significant increase”. The “increase in micronucleated PCEs in female groups” value [2] was “not observed”, the “percent PCEs” value [2] was “no effect” and the “potential to cause genotoxicity (weight of evidence)” value [2] was “limited potential to cause genotoxicity”. The “time for which plasma drug levels >20 ug/mL persist” value ([3]; 10 and 15 mg/kg dose levels) was “greater than 10 hours”, the “time for which targeted plasma drug levels were maintained” value ([3]; 10 and 15 mg/kg dose levels) was “more than 10 hours” and the AUC(0-t) ([3]; human, plasma, oral, 5 mg/kg, Day 0, fed, with iron) was 226 µg·h/mL. For the same compound, the Cmax ([3]; human, plasma, oral, 5 mg/kg, Day 0, fed, with iron, read-out: mean plasma Cmax) was 16300 ng/mL, the AUC(0-t) ([3]; human, plasma, oral, 5 mg/kg, Day 0, without iron) was 241 µg·h/mL and the Cmax ([3]; human, plasma, oral, 5 mg/kg, Day 0, without iron, read-out: Average Cmax) was 17700 ng/mL. It also gave a Cmax ([3]; human, plasma, oral, 5 mg/kg, Day 13, fed, with iron, read-out: Cmax) of 24800 ng/mL, an AUC ([3]; human, plasma, oral, 5 mg/kg, Day 13, with iron) of 360 µg·h/mL and an AUC ([3]; human, plasma, oral, 5 mg/kg, Day 13, without iron) of 312 µg·h/mL. For the same compound, the Cmax ([3]; human, plasma, oral, 5 mg/kg, Day 13, without iron, read-out: Average Cmax) was 22400 ng/mL, the AUC(0-t) ([3]; human, plasma, oral, 10 mg/kg, Day 0, fed) was 441 µg·h/mL and the Cmax ([3]; human, plasma, oral, 10 mg/kg, Day 0, fed, read-out: mean plasma Cmax) was 30600 ng/mL. It also gave an AUC ([3]; human, plasma, oral, 10 mg/kg, Day 13) of 538 µg·h/mL, a Cmax ([3]; human, plasma, oral, 10 mg/kg, Day 13, read-out: Cmax) of 35700 ng/mL and an AUC(0-t) ([3]; human, plasma, oral, 15 mg/kg, Day 0, fed) of 697 µg·h/mL. The Cmax ([3]; human, plasma, oral, 15 mg/kg, Day 0, fed, read-out: mean plasma Cmax) was 48300 ng/mL, the AUC ([3]; human, plasma, oral, 15 mg/kg, Day 13) was 958 µg·h/mL and the Cmax ([3]; human, plasma, oral, 15 mg/kg, Day 13, read-out: Cmax) was 67600 ng/mL. The Tmax ([3]; human, plasma, oral, all dose levels, both days, dosing with food) was 2.5 to 4.4 h and the half-life ([3]; human, plasma, oral, doses of 10 and 15 mg/kg, read-out: mean T1/2 (converted)) was 11 h.
